Test results from patent publication US7501418B2, “Fused heterocyclic isoxazoline derivatives and their use as anti-depressants” (Janssen Pharmaceutica, N.V., priority 2002, dated 2009).
“And” between values parts separate entries of the source, which are not always exact repeats. Equal entries are not always repeated. Structures can show the parent of a compound that is named as a salt. Where two headings read alike, the source gives them in different places.

Experiments:
hα2A receptor = target: T1, hα2A receptor (Homo sapiens, UniProt P08913); assay: Radioligand binding experiment for α2A-adrenergic receptor ([3H]-raulwolscine); details: CHO cell membranes with human α2A receptor, [3H]raulwolscine 1 nM
T1 construct: expressed in transfected cells
T1 sequence (P08913 1-465): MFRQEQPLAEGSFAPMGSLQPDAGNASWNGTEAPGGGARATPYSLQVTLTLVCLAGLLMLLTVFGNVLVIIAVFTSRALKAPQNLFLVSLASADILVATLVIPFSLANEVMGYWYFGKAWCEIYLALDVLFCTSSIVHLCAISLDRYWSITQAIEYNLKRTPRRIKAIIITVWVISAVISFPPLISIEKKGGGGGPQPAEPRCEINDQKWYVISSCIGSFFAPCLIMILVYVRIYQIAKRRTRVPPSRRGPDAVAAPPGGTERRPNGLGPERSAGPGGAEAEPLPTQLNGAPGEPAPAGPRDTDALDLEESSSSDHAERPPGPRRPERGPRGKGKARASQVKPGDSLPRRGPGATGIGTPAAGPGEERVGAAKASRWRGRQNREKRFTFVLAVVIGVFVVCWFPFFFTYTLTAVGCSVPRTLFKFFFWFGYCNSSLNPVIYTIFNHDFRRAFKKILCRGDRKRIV
Protocol: (§1) In general, a low concentration of a radioligand with a high binding affinity for a particular receptor or transporter is incubated with a sample of a tissue preparation enriched in a particular receptor or transporter or with a preparation of cells expressing cloned human receptors in a buffered medium. During the incubation, the radioligand binds to the receptor or transporter. When equilibrium of binding is reached, the receptor bound radioactivity is separated from the non-bound radioactivity, and the receptor- or transporter-bound activity is counted. The interaction of the test compounds with the receptor is assessed in competition binding experiments. Various concentrations of the test compound are added to the incubation mixture containing the receptor- or transporter preparation and the radioligand. The test compound in proportion to its binding affinity and its concentration inhibits binding of the radioligand. The radioligand used for hα2A, hα2B and hα2C receptor binding was [^3H]-raulwolscine and for the h5-HT transporter was [^3H]paroxetine. CHO cells, stabile transfected with human adrenergic-α2A-, -α2B or α2C receptor cDNA, were cultured in Dulbecco's Modified Eagle's Medium (DMEM)/Nutrient mixture Ham's F12 (ratio 1:1)(Gibco, Gent-Belgium) supplemented with 10% heat inactivated fetal calf serum (Life Technologies, Merelbeke-Belgium) and antibiotics (100 IU/ml penicillin G, 100 μg/ml streptomycin sulphate, 110 μg/ml pyruvic acid and 100 μg/ml L-glutamine). One day before collection, cells were induced with 5 mM sodiumbutyrate. Upon 80-90% of confluence, cells were scraped in phosphate buffered saline without Ca^2+ and Mg^2+ and collected by centrifugation at 1500×g for 10 min. The cells were homogenised in Tris-HCl 50 mM using an Ultraturrax homogenizer and centrifuged for 10 min at 23,500×g. The pellet was washed once by resuspension and rehomogenization and the final pellet was resuspended in Tris-HCl, divided in 1 ml aliquots and stored at −70° C. Membranes were thawed and re-homogenized in incubation buffer (glycylglycine 25 mM, pH 8.0). In a total volume of 500 μl, 2-10 μg protein was incubated with [^3H]raulwolscine (NET-722) (New England Nuclear, USA) (1 nM final concentration) with or without competitor for 60 min at 25° C. followed by rapid filtration over GF/B filter using a Filtermate196 harvester (Packard, Meriden, Conn.). Filters were rinsed extensively with ice-cold rinsing buffer (Tris-HCl 50 mM pH 7.4). Filter-bound radioactivity was determined by scintillation counting in a Topcount (Packard, Meriden, Conn.) and results were expressed as counts per minute (cpm). Non-specific binding was determined in the presence of 1 μM oxymetazoline for hα2A- and hα2B receptors and 1 μM spiroxatrine for hα2C receptors. Data from assays in the presence of compound were calculated as a percentage of total binding measured in the absence of test compound. Inhibition curves, plotting percent of total binding versus the log value of the concentration of the test compound, were automatically generated, and sigmoidal inhibition curves were fitted using non-linear regression. The pIC50 values of test compounds were derived from individual curves.

hα2B receptor = target: T2, hα2B receptor (Homo sapiens, UniProt P18089); assay: Radioligand binding experiment for α2B-adrenergic receptor ([3H]-raulwolscine)
T2 construct: expressed in transfected cells
T2 sequence (P18089 1-450): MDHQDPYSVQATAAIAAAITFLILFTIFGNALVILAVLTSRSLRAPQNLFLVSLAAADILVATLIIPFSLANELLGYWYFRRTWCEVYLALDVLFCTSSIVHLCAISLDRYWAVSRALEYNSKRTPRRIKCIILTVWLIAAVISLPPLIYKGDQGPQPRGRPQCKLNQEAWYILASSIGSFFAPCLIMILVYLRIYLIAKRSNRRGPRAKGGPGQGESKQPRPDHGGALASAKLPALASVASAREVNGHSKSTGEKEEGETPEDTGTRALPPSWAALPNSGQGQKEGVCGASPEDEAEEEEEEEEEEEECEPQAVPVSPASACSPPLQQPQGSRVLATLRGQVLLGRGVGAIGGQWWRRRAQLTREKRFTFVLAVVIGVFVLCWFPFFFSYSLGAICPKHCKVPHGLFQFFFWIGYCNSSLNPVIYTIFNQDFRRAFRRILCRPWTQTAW
Protocol: as §1

hα2C receptor = target: T3, hα2C receptor (Homo sapiens, UniProt P18825); assay: Radioligand binding experiment for α2C-adrenergic receptor ([3H]-raulwolscine)
T3 construct: expressed in transfected cells
T3 sequence (P18825 1-462): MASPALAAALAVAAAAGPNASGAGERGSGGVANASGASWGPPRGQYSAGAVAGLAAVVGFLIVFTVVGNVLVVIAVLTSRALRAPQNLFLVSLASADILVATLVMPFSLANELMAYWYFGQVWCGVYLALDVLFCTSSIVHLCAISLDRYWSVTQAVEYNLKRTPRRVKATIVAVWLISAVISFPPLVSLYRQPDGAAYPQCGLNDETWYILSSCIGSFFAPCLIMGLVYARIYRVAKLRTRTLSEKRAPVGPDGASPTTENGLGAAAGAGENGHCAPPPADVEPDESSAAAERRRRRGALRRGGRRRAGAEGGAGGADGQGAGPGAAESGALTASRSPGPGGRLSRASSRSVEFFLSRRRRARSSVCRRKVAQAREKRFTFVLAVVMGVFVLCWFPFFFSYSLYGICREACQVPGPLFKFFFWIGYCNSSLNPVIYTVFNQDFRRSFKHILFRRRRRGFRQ
Protocol: as §1

h5-HT transporter = target: T4, h5-HT transporter (Homo sapiens, UniProt P31645); assay: Radioligand binding experiment for 5-HT transporter ([3H]paroxetine); details: human platelet membranes, [3H]paroxetine 0.5 nM
T4 construct: Human platelet membranes (Oceanix Biosciences Corporation, Hanover, Md., USA) were thawed; tissue Oceanix Biosciences Corporation, Hanover, Md., USA; host or cells: human platelet membranes
Protocol: In general, a low concentration of a radioligand with a high binding affinity for a particular receptor or transporter is incubated with a sample of a tissue preparation enriched in a particular receptor or transporter or with a preparation of cells expressing cloned human receptors in a buffered medium. During the incubation, the radioligand binds to the receptor or transporter. When equilibrium of binding is reached, the receptor bound radioactivity is separated from the non-bound radioactivity, and the receptor- or transporter-bound activity is counted. The interaction of the test compounds with the receptor is assessed in competition binding experiments. Various concentrations of the test compound are added to the incubation mixture containing the receptor- or transporter preparation and the radioligand. The test compound in proportion to its binding affinity and its concentration inhibits binding of the radioligand. The radioligand used for hα2A, hα2B and hα2C receptor binding was [^3H]-raulwolscine and for the h5-HT transporter was [^3H]paroxetine. Human platelet membranes (Oceanix Biosciences Corporation, Hanover, Md., USA) were thawed, diluted in buffer (Tris-HCl 50 mM, 120 mM NaCl and 5 mM KCl) and quickly (max 3 s) homogenised with an Ultraturrax homogenizer. In a total volume of 250 μL, 50-100 μg protein was incubated with [^3H]paroxetine (NET-869) (New England Nuclear, USA) (0.5 nM final concentration) with or without competitor for 60 min at 25 ° C. Incubation was stopped by rapid filtration of the incubation mixture over GF/B filters, pre-wetted with 0.1% polyethyleneamine, using a Filtermate196 harvester (Packard, Meriden, Conn.). Filters were rinsed extensively with ice-cold buffer and radioactivity on the filters was counted in a Topcount liquid scintillation counter (Packard, Meriden, Conn.). Data were expressed as cpm. Imipramine (at 1 μM final concentration) was used to determine the non-specific binding. Data from assays in the presence of compound were calculated as a percentage of total binding measured in the absence of test compound. Inhibition curves, plotting percent of total binding versus the log value of the concentration of the test compound, were automatically generated, and sigmoidal inhibition curves were fitted using non-linear regression. The pIC50 values of test compounds were derived from individual curves.

[1] = hα2B (pIC50), CHO cell membranes with human α2B receptor, [3H]raulwolscine 1 nM
[2] = hα2C (pIC50), CHO cell membranes with human α2C receptor, [3H]raulwolscine 1 nM
[3] = CHO cell membranes with human α2B receptor, [3H]raulwolscine 1 nM
[4] = CHO cell membranes with human α2C receptor, [3H]raulwolscine 1 nM
[5] = read-out: hα2A (pIC50) (converted)
[6] = CHO cell membranes with human α2C receptor, [3H]raulwolscine 1 nM, read-out: hα2C (pIC50) (converted)
[7] = read-out: 5-HTT (pIC50) (converted)

T4 sequence (P31645 whole entry): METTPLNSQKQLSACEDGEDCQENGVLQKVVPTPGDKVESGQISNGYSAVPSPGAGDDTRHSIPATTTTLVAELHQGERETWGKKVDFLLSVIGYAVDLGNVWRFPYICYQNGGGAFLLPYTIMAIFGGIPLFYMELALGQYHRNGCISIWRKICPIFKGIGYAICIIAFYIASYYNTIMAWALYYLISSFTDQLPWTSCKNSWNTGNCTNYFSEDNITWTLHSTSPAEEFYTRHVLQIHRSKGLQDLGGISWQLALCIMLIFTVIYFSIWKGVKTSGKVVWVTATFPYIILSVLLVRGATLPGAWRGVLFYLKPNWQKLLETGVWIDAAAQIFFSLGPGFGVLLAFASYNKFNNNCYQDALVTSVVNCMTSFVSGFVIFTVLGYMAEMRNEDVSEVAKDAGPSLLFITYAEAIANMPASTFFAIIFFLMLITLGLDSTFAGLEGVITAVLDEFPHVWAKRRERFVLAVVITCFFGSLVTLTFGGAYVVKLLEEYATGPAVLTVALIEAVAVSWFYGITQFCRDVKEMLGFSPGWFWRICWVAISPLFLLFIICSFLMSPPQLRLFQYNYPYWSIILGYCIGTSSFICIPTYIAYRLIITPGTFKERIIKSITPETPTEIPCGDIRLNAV

Structure (SMILES)	IC50 (hα2A receptor; hα2A (pIC50))	IC50 (hα2B receptor; [1])	IC50 (hα2C receptor; [2])	5-HTT (pIC50) (h5-HT transporter)	melting point	IC50 (h5-HT transporter; 5-HTT (pIC50))	IC50 (hα2A receptor; [5])	IC50 (hα2C receptor; [6])	IC50 (h5-HT transporter; [7])	further results
C/C(=C\c1ccccc1)CN1CCN(CC2ON=C3c4cc5ccn(CCO)c5cc4OCC32)CC1 (single isomer, unassigned) [Compound 16, A-2-{3-[4-(2-methyl-3-phenyl-allyl)-piperazin-1-ylmethyl]-3a,4-dihydro-3H-2,5-dioxa-1,7-diaza-dicyclopenta[a,g]naphthalen7-yl}-ethanol]	316 nM	20 nM	50.1 nM	6.3	167.9 to 170.2 °C					
C/C(=C\c1ccccc1)CN1CCN(CC2ON=C3c4cc5ccn(CCO)c5cc4OCC32)CC1 (stereo not shown) [Compound 8]	15.8 nM	5.01 nM	2 nM			3.98 nM				
c1ccc2cc(CN3CCN(CC4ON=C5c6cc7cc[nH]c7cc6OCC54)CC3)ccc2c1 (racemic) [Compound 4]				8.8						hα2A (pIC50) (hα2A receptor): 7.6; hα2B (pIC50) (hα2B receptor; [3]): 7.3; hα2C (pIC50) (hα2C receptor; [4]): 8.4
C/C(=C\c1ccccc1)CN1CCN(C[C@@H]2ON=C3c4cc5cc[nH]c5cc4OC[C@H]32)CC1 (relative stereo) [Compound 1, 3-[4-(2-Methyl-3-phenyl-allyl)-piperazin-1-ylmethyl]-3a,4-dihydro-3H-2,5-dioxa-1,7-diaza-dicyclopenta[a,g]naphthalene]	5.01 nM				173.2 to 179.1 °C	3.98 nM				IC50 (hα2B receptor): 3.98 nM; IC50 (hα2C receptor): 1 nM
C/C(=C\c1ccccc1)CN1CCN(CC2ON=C3c4ccncc4OCC32)CC1 (stereo not shown) (as salt: oxalate) [Compound 18, 3-[4-(2-methyl-3-phenyl-allyl)-piperazin-1-ylmethyl]-3a,4-dihydro-3H-2,5-dioxa-1,7-diaza-cyclopenta[a]naphthalene oxalate salt (1/1)]					216.8 to 220.5 °C					
C/C(=C\c1ccccc1)CN1CCN(CC2ON=C3c4cc5ccn(CCO)c5cc4OCC32)CC1 (single isomer, unassigned) [Compound 17, B-2-{3-[4-(2-methyl-3-phenyl-allyl)-piperazin-1-ylmethyl]-3a,4-dihydro-3H-2,5-dioxa-1,7-diaza-dicyclopenta[a,g]naphthalen7-yl}-ethanol]	10 nM	5.01 nM	2 nM		167.5 to 170.5 °C	501 nM				
C/C(=C\c1ccccc1)CN1CCN(CC2ON=C3c4ccncc4OCC32)CC1 (stereo not shown) [Compound 18, 3-[4-(2-methyl-3-phenyl-allyl)-piperazin-1-ylmethyl]-3a,4-dihydro-3H-2,5-dioxa-1,7-diaza-cyclopenta[a]naphthalene oxalate salt (1/1)]							1.26 nM and 1.58 nM	1.58 nM	200 nM and 31.6 nM	IC50 (hα2B receptor; CHO cell membranes with human α2B receptor, [3H]raulwolscine 1 nM, read-out: hα2B (pIC50) (converted)): 1.58 nM
C/C(=C\c1ccc(F)cc1)CN1CCN(CC2ON=C3c4cc5cc[nH]c5cc4OCC32)CC1 (racemic) [Compound 3]				8.2						hα2A (pIC50) (hα2A receptor): 7.8; hα2B (pIC50) (hα2B receptor; [3]): 7.6; hα2C (pIC50) (hα2C receptor; [4]): 8.7
C/C(=C\c1ccc(F)cc1)CN1CCN(CC2ON=C3c4ncccc4OCC32)CC1 (stereo not shown) [Compound 24, 3-{4-[3-(4-fluoro-phenyl)-2-methyl-allyl]-piperazin-1-ylmethyl}-3a,4-dihydro-3H-2,5-dioxa-1,9-diaza-cyclopenta[a]naphthalene]					145.6 to 152.3 °C		6.31 nM	31.6 nM	200 nM	
C/C(=C\c1ccc(F)cc1)CN1CCN(CC2ON=C3c4sccc4OCC32)CC1 (stereo not shown) [Compound 27, 3-{4-[3-(4-fluoro-pheny)-2-methyl-allyl]-piperazin-1-ylmethyl}-3a,4-dihydro-3H-2,5-dioxa-8-thia-1-aza-as-indacene]					142.3 to 146 °C		2 nM	7.94 nM	79.4 nM	
